Tests used:
MM cell lines = experiment: Cell proliferation assay, all MM cell lines tested; format: cell-based; conditions: read-out: mean GI50 values, range over all MM cell lines tested
Description: The antiproliferative effects of INCB053914 on hematologic tumor cells were investigated using assays described in the Supporting Information (S2 File).
Cell proliferation assays. […] After 3 to 4 days, [^3H]-thymidine (1 μCi/well) (PerkinElmer) in PBS (10 μl) was added to the cell culture for an additional 12 hours. The incorporated radioactivity was separated by filtration with water through GF/B filters (Packard Bioscience, Meriden, Connecticut) and measured by liquid scintillation counting with a TopCount (Packard Bioscience).

IKKA = IKKA (Homo sapiens, UniProt O15111); experiment: Kinase selectivity panel; format: biochemical; conditions: [ATP] = 1 mM
IKKA, sequence (O15111 whole entry): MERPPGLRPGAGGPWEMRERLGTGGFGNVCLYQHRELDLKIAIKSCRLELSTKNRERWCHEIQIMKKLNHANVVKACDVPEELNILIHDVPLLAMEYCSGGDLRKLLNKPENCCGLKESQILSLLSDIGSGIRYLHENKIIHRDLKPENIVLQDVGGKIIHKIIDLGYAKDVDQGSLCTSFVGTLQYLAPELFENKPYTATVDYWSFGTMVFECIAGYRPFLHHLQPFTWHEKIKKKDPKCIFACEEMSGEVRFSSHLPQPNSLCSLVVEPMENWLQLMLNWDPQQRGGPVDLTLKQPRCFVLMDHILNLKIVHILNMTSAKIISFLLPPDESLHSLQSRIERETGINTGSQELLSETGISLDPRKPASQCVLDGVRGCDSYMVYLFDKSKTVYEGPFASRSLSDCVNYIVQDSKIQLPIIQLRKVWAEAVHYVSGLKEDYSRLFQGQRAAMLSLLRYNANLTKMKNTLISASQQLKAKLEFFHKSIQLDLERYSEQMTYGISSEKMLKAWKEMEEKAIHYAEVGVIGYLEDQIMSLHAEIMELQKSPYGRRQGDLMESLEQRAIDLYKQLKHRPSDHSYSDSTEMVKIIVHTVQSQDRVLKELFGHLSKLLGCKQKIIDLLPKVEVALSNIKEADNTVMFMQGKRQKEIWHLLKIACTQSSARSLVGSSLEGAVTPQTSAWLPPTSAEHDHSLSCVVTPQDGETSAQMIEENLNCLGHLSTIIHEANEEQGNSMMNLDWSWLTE

LRRK2 = LRRK2 (Homo sapiens, UniProt Q5S007); experiment: Kinase selectivity panel; format: biochemical; conditions: [ATP] = 1 mM
LRRK2, sequence (Q5S007 whole entry): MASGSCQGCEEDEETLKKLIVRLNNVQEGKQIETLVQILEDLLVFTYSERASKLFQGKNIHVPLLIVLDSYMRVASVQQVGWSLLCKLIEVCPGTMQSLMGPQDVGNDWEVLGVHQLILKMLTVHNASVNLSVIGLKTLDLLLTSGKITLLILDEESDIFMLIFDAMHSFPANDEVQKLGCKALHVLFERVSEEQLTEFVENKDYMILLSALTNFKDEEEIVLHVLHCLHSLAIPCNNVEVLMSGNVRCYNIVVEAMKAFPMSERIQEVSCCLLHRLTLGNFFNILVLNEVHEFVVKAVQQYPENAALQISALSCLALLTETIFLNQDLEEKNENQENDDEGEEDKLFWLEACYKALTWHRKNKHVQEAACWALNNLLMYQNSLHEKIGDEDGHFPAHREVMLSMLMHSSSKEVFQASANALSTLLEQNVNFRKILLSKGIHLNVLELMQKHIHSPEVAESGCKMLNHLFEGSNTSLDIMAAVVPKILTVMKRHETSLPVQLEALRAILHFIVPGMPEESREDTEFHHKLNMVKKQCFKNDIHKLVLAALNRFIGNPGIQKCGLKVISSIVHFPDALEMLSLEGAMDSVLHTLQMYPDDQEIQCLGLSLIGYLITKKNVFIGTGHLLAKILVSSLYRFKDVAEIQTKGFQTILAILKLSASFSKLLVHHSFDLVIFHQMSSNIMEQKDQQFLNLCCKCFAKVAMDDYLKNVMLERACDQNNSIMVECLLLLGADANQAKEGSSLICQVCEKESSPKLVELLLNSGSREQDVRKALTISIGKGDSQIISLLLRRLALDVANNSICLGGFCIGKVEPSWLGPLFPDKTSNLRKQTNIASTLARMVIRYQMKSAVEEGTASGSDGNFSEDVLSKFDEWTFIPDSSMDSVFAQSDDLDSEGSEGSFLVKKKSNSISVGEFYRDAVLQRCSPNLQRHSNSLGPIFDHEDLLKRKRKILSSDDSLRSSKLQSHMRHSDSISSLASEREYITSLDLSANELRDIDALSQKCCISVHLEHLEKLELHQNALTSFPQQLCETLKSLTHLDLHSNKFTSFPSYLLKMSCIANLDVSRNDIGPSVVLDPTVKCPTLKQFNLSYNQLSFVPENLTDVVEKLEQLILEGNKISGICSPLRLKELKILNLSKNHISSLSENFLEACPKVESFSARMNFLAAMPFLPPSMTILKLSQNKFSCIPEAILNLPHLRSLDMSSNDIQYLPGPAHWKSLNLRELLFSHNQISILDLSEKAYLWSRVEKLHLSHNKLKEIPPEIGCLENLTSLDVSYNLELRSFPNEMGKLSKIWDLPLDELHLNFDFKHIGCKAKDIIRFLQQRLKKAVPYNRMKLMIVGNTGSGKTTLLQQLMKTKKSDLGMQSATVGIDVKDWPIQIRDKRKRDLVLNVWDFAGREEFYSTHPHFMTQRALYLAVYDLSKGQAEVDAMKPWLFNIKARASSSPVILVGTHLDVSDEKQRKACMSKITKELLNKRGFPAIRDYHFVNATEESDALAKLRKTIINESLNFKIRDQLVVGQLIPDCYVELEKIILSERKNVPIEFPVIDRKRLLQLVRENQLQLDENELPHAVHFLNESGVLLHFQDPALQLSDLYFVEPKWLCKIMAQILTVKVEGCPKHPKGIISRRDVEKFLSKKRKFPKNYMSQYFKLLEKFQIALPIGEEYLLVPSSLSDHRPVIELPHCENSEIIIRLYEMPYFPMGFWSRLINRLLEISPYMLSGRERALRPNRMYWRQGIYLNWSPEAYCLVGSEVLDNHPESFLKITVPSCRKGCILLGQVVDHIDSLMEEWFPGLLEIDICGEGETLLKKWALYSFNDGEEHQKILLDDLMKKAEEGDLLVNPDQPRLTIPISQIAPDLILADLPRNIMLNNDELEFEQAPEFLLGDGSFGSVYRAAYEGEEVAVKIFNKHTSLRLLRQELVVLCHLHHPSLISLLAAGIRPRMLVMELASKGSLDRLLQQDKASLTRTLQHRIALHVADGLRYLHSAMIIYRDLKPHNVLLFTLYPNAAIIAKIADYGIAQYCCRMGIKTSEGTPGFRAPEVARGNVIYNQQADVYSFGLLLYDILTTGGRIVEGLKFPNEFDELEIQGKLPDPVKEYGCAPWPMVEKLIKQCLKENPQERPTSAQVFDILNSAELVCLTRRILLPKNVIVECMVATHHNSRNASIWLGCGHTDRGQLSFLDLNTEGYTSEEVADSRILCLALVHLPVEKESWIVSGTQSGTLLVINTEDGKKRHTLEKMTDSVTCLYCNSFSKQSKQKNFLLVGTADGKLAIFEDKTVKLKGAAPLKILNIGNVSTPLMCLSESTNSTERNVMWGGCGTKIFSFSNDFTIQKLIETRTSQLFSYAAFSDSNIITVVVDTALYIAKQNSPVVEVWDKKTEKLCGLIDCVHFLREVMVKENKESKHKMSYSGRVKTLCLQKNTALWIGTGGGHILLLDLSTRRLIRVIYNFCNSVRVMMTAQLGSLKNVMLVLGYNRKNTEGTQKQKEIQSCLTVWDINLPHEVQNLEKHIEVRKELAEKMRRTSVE

PIM2 = PIM2 (Homo sapiens, UniProt Q9P1W9); experiment: PIM2 time-resolved fluorescence resonance energy transfer assay; format: biochemical; conditions: 1 mM ATP; read-out: Mean (SD) IC50
PIM2, sequence (Q9P1W9 whole entry): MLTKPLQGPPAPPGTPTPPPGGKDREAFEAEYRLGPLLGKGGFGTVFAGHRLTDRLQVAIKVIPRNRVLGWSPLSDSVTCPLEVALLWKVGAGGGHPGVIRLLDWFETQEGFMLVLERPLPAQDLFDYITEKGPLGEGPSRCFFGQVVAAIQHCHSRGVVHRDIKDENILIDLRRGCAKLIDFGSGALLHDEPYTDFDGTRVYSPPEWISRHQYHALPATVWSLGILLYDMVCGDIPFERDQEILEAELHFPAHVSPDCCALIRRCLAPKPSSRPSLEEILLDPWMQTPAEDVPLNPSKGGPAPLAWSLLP
Description: The activity of INCB053914 against the PIM1 and PIM3 kinases was measured using AlphaScreen® assays (PerkinElmer, Inc., Shelton, Connecticut), and against PIM2 kinase using a time-resolved fluorescence resonance energy transfer assay (see Supporting Information, S1 File)
Time-resolved fluorescence resonance energy transfer assay. Reactions (20 μl) were carried out in white 384-well polystyrene plates dotted with 0.8 μl of the compound in dimethylsulfoxide in the assay buffer (50 mM Tris, pH 7.5, 0.01% Tween-20, 5 mM MgCl2, 0.01% BSA, 5 mM dithiothreitol) containing 0.05 μM fluorescein-labeled CREBtide peptide substrate (Invitrogen), 1 mM ATP, and 1 nM PIM2 (Invitrogen). After 2 hours at 25°C, reactions were stopped with 10 μl RT-FRET dilution buffer (Invitrogen) supplemented with 30 mM EDTA and 1.5 nM LanthaScreen Tb-CREB pSer133 antibody (Invitrogen). After a 30-minute incubation at room temperature, plates were read on a PHERAstar FS plate reader (BMG Labtech).

In the case of `C[C@H]1CN(c2c(NC(=O)c3ccc(F)c(-c4c(F)cccc4F)n3)cnc3c2CC[C@H]3O)C[C@@H](N)[C@@H]1O.O=P(O)(O)O` [INCB053914, N-((R)-4-((3R,4R,5S)-3-amino-4-hydroxy-5-methylpiperidin-1-yl)-7-hydroxy-6,7-dihydro-5H-cyclopenta[b]pyridin-3-yl)-6-(2,6-difluorophenyl)-5-fluoropicolinamide phosphate], the GI50 (MM cell lines) is reported as 13.2 to 230 nM, the IC50 (IKKA) is reported as over 20000 nM and the IC50 (LRRK2) is reported as over 20000 nM. For the same compound, the IC50 (PIM2) was 30 nM.
